Test results taken from ChEMBL document CHEMBL5528043, “Development of Potent Mcl-1 Inhibitors: Structural Investigations on Macrocycles Originating from a DNA-Encoded Chemical Library Screen” (J Med Chem, 2024).
Values after ≈ are worked out from the molar mass of the structure shown.

Legend:
[1] = Kinetic solubility of the compound in pH 7.4 buffer measured after 24 hrs by LC-UV analysis; type: physicochemical; conditions: read-out: Kinetic_solubility
[2] = Passive permeability of compound at pH 7.4 incubated for 4 hrs by PAMPA assay; type: ADME; conditions: read-out: permeability
[3] = biological target: Induced myeloid leukemia cell differentiation protein Mcl-1 (Homo sapiens, UniProt Q07820); assay: Inhibition of Mcl-1 (172-327) (unknown origin) using BIOTIN-AHXGQVGRQLAIIGDDINR-amide peptide by TR-FRET based BAK peptide displacement assay
[4] = test system: NCI-H929; assay: Cytotoxicity against human NCI-H929 cells assessed as […] by measuring caspase 3/7 activity measured after 6 hrs by luminescence assay; type: functional, cell-based; conditions: NCI-H929, 6 h
[5] = test system: NCI-H929; assay: Cytotoxicity against human NCI-H929 cells assessed as cell viability measured after 72 hrs incubation by CellTiterGlo assay; type: functional, cell-based; conditions: NCI-H929, 72 h
[6] = biological target: Bcl-2-like protein 1 (Homo sapiens, UniProt Q07817); assay: Inhibition of Bcl-xl (1-212) (unknown origin) using BIOTIN-AHXAHXGQVGRQLAIIGDDINR-amide peptide by TR-FRET based BAK peptide displacement assay
[7] = Metabolic stability in mouse liver S9 fraction assessed as half life; type: ADME, subcellular
[8] = Metabolic stability in rat liver S9 fraction assessed as half life; type: ADME, subcellular
[9] = Metabolic stability in mouse liver S9 fraction assessed as intrinsic clearance; type: ADME, subcellular; conditions: read-out: CLH
[10] = Metabolic stability in rat liver S9 fraction assessed as intrinsic clearance; type: ADME, subcellular; conditions: read-out: CLH
[11] = Metabolic stability in human liver S9 fraction assessed as half life; type: ADME, subcellular; conditions: for half-life: liver S9 fraction
[12] = Metabolic stability in human liver S9 fraction assessed as intrinsic clearance; type: ADME, subcellular; conditions: for microsomal CLint: liver S9 fraction, read-out: CLH

Chain of Induced myeloid leukemia cell differentiation protein Mcl-1 (Q07820 whole entry): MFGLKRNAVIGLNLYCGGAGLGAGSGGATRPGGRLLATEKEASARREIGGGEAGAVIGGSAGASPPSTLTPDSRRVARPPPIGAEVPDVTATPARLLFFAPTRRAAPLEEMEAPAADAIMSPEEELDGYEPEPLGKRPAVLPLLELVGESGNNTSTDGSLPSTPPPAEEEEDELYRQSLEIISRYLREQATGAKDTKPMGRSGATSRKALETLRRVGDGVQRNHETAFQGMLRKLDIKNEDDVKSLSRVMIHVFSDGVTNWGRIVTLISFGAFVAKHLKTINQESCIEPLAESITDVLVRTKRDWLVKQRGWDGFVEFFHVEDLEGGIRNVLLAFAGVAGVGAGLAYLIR
Chain of Bcl-2-like protein 1 (Q07817 whole entry): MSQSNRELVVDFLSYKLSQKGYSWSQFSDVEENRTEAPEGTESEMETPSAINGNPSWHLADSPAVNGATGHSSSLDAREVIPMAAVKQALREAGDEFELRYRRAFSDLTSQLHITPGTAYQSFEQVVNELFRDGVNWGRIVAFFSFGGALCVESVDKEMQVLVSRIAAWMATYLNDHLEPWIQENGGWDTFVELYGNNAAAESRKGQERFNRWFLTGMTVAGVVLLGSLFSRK

| Structure (SMILES) | solubility kinetic at 24 h [1] [µM] | Papp at 4 h [2] [×10⁻⁶ cm/s] | IC50 [3] [µM] | IC50 [6] [µM] | half-life [7] [min] | half-life [8] [min] | microsomal CLint [9] [µL/min/mg] | microsomal CLint [10] [µL/min/mg] | t1/2 ([11]; s9) [min] | CLH ([12]; s9) [µL/min/mg] | half-life [11] [min] | microsomal CLint [12] [µL/min/mg] | IC50 [4] [nM] | IC50 [5] [nM] |
| --- | --- | --- | --- | --- | --- | --- | --- | --- | --- | --- | --- | --- | --- | --- |
| CCOc1cc(Oc2cc(C)c(Cl)c(C)c2)cc2c1OCC(=O)N[C@H]1CC[C@H](CC1)CC(=O)N[C@@H](CC(C)C)C(=O)N[C@H](Cc1cccnc1)C(=O)N[C@@H](C(=O)O)Cc1ccc(cc1)OC2 | 11 (≈ 10.2 µg/mL) | 1.5 | 16 | – | – | – | – | – | – | – | – | – | 410 | – |
| CCOc1cc(Oc2cc(C)c(Cl)c(C)c2)cc2c1OCC(=O)N[C@H]1CC[C@H](CC1)CC(=O)N[C@@H](c1ccccc1)C(=O)N[C@H](Cc1ccncc1)C(=O)NCCc1ccc(cc1)OC2 | < 2 | < 1 | 5.3 | – | – | – | – | – | – | – | – | – | 35 | – |
| CCOc1cccc2c1OCC(=O)N[C@H]1CC[C@H](CC1)CC(=O)N[C@@H](c1ccccc1)C(=O)N[C@H](Cc1ccccc1)C(=O)N[C@H](C(=O)NC)Cc1ccc(cc1)NC2 | < 2 | – | 0.08 | > 10 | 20 | 39 | 35 | 18 | 17 | 17 | – | – | – | – |
| CCOc1cccc2c1OCC(=O)N[C@H]1CC[C@H](CC1)CC(=O)N[C@@H](c1ccccc1)C(=O)N[C@H](Cc1ccccc1)C(=O)N[C@H](C(=O)NC)Cc1ccc(cc1)OC2 | < 2 | – | 0.05 | > 10 | 19 | 47 | 36 | 15 | – | – | 37 | 19 | – | – |
| CCOc1cc(Oc2cc(C)c(Cl)c(C)c2)cc2c1OCC(=O)N[C@H]1CC[C@H](CC1)CC(=O)N[C@@H](c1ccccc1)C(=O)N[C@H](Cc1cccnc1)C(=O)N[C@H](C(=O)O)Cc1ccc(cc1)OC2 | > 80 | 3.9 | 13 | – | – | – | – | – | – | – | – | – | 480 | – |
| CCOc1cc(Oc2cc(C)cc(C)c2)cc2c1OCC(=O)N[C@H]1CC[C@H](CC1)CC(=O)N[C@@H](c1ccccc1)C(=O)N[C@H](Cc1ccccc1)C(=O)NCCc1ccc(cc1)OC2 | – | – | 1.6 | > 10 | – | – | – | – | – | – | – | – | – | 56 |

Now from value to compound, other results behind:

| solubility kinetic at 24 h [1] [µM] | Papp at 4 h [2] [×10⁻⁶ cm/s] | IC50 [3] [µM] | IC50 [6] [µM] | half-life [7] [min] | half-life [8] [min] | microsomal CLint [9] [µL/min/mg] | microsomal CLint [10] [µL/min/mg] | t1/2 ([11]; s9) [min] | CLH ([12]; s9) [µL/min/mg] | half-life [11] [min] | microsomal CLint [12] [µL/min/mg] | Structure (SMILES) | IC50 [4] [nM] | IC50 [5] [nM] |
| --- | --- | --- | --- | --- | --- | --- | --- | --- | --- | --- | --- | --- | --- | --- |
| > 80 | < 1 | 5.7 | – | – | – | – | – | – | – | – | – | CCOc1cc(Oc2cc(C)c(Cl)c(C)c2)cc2c1OCC(=O)N[C@H]1CC[C@H](CC1)CC(=O)N[C@@H](c1ccccc1)C(=O)N[C@H](Cc1ccccc1)C(=O)N[C@H](C(=O)O)Cc1ccc(cc1)NC2 | 1100 | – |
| < 2 | 7.3 | 18 | – | – | – | – | – | – | – | – | – | CCOc1cc(Oc2cc(C)c(Cl)c(C)c2)cc2c1OCC(=O)N[C@H]1CC[C@H](CC1)CC(=O)N[C@@H](c1ccccc1)C(=O)N1CCC[C@@H]1C(=O)NCCc1ccc(cc1)OC2 | 540 | – |
| < 2 | – | 1.5 | > 10 | – | – | – | – | – | – | – | – | CCOc1cc(Oc2cc(C)c(Cl)c(C)c2)cc2c1OCC(=O)N[C@H]1CC[C@H](CC1)CC(=O)N[C@@H](c1ccccc1)C(=O)N[C@H](Cc1ccccc1)C(=O)NCCc1ccc(cc1)OC2 | 60 | 41 |
| > 80 | 5.3 | 31 | – | – | – | – | – | – | – | – | – | CCOc1cc(Oc2cc(C)c(Cl)c(C)c2)cc2c1OCC(=O)N[C@H]1CC[C@H](CC1)CC(=O)N[C@@H](CC(C)C)C(=O)N[C@H](Cc1cccnc1)C(=O)N[C@H](C(=O)O)Cc1ccc(cc1)OC2 | 1100 | – |
| < 2 | – | 0.13 | > 10 | 17 | 23 | 41 | 30 | – | – | 8 | 82 | CCOc1cccc2c1OCC(=O)N[C@H]1CC[C@H](CC1)CC(=O)N[C@@H](c1ccccc1)C(=O)N[C@H](Cc1ccccc1)C(=O)NCCc1ccc(cc1)OC2 | – | > 10000 |
| > 80 | 2 | 7.7 | – | – | – | – | – | – | – | – | – | CCOc1cc(Oc2cc(C)cc(C)c2)cc2c1OCC(=O)N[C@H]1CC[C@H](CC1)CC(=O)N[C@@H](c1ccccc1)C(=O)N[C@H](Cc1ccccc1)C(=O)N[C@H](C(=O)O)Cc1ccc(cc1)NC2 | 630 | – |
| < 2 | 5.5 | 14 | – | – | – | – | – | – | – | – | – | CCOc1cc(Oc2cc(C)c(Cl)c(C)c2)cc2c1OCC(=O)N[C@H]1CC[C@H](CC1)CC(=O)N[C@@H](c1ccccc1)C(=O)N[C@H](Cc1cccnc1)C(=O)NCCc1ccc(cc1)OC2 | 45 | – |
